System: MDA-MB-468 spheroids with HUVEC/MSC, viability
Test: Anticancer human tumor MDA-MB-468 cell line growth inhibition [PI3K];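 also: spheroids exposed to agents for seven days before readout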
Details: for IC50: curve of first compound; for viability, T/C: stronger effect = lower value; active = viability on the fitted dose curve at most 10% of control; inactive = the rest
Text: Combinatorial screen of targeted agents with the PI3K inhibitors inavolisib, alpelisib, duvelisib, and copanlisib in multi-cell type tumor spheroids
A high-throughput screen of multi-cell type tumor spheroids was designed to identify active combinations of targeted small molecules and PI3K pathway inhibitors. Complex spheroids include a stromal component modeled by human endothelial cells (HUVEC) and fibroblasts modeled by human mesenchymal stem cells (MSCs). The concentration ranges selected for each drug and investigational agent were based upon clinically achievable concentrations if the clinical Cmax of the agent was known.
Compounds. The drugs and investigational agents: inavolisib (NSC800729), alpelisib (NSC765974), duvelisib (NSC772469), copanlisib (NSC816437), ipatasertib (NSC767898), afuresertib (NSC778305), talazoparib (NSC767125), sapanisertib (NSC764658), selumetinib (NSC741078), tovorafenib (DAY101, NSC766906), vemurafenib (NSC761431), ravoxertinib (NSC781343), sotorasib (NSC818433), MRTX1133 (NSC 836407), abemaciclib (NSC 768073), palbociclib (NSC758247), venetoclax (NSC 766270), SY5609 (NSC837396), enzalutamide (NSC755605), and darolutamide (NSC825331), were obtained from the National Cancer Institute (NCI) Developmental Therapeutics Program Chemical Repository. The FDA-approved anticancer drug set is available from the NCI Developmental Therapeutics Program. […] The stock solutions were prepared in dimethyl sulfoxide (DMSO, Sigma-Aldrich, St. Louis, MO, cat. D2650) at 800-fold the tested concentration and stored at -70 degrees C prior to their use. All drugs and investigational agents were tested over a range starting from a high concentration at or near the clinical Cmax and decreasing in half-log increments. If the clinical Cmax for an agent had not been determined, the highest concentration tested was 10 microM.
Cell Culture. All cells were maintained in an incubator at 37 degrees C and 5% CO2 with 95% humidity. The PDC lines were cultured according to standard operating procedures established by the NCI PDMR (https://pdmr.cancer.gov/sops/default.htm). All PDCs were thawed and cultured in Matrigel-coated flasks prepared with a working solution of 1X Ham's F-12 nutrient mix, without supplementation (Invitrogen, Waltham, MA, cat. 11765054), 100 U/mL penicillin-streptomycin (Invitrogen, cat. 15140122), and 2.5% Matrigel (Corning Inc., Corning, NY, cat. 354248) for the first three passages. The 354836-022-R-J1-PDC, 475296-252-R-J1-PDC, and 997726-040-R-J2-PDC lines were cultured in 6A media, which includes advanced DMEM/F-12 (Thermo Fisher Scientific, cat. 12634028), 10 mM HEPES (Thermo Fisher Scientific, cat. 15630080), 1X GlutaMAX supplement (Thermo Fisher Scientific, cat. 35050061), 0.1 mg/mL primocin (InvivoGen, San Diego, CA, cat. ant-pm-2), 10% defined fetal bovine serum, heat inactivated (HyClone Laboratories Inc., Logan, UT, cat. SH30070.03HI), 50% L-WRN conditioned media (ATCC, cat. CRL-3276), 1.25 mM N-Acetyl-L-cysteine (Sigma-Aldrich, cat. A9165), 10 mM nicotinamide (Sigma-Aldrich, cat. N0636), 1X B-27 supplement (Thermo Fisher Scientific, cat. 17504044), 1X N-2 supplement (Thermo Fisher Scientific, cat. 17502048), and 10 microM Y-27632 dihydrochloride (Tocris Bioscience, Bristol, United Kingdom, cat. 1254). The 624824-186-R-J2-PDC line was cultured in 6C/Colon 1B media, which includes all 6A media components plus 50 ng/mL human EGF recombinant protein (Thermo Fisher Scientific, cat. PHG0311). […]

[1] = second compound 0.00316 µM, first compound 0.0316 µM
[2] = second compound 0.00316 µM, first compound 0.1 µM
[3] = second compound 0.00316 µM, first compound 0.316 µM
[4] = second compound 0.00316 µM, first compound 1 µM
[5] = second compound 0.00316 µM, first compound 3.16 µM
[6] = second compound 0.00316 µM, first compound 10 µM
[7] = second compound 0.01 µM, first compound 0.0316 µM
[8] = second compound 0.01 µM, first compound 0.1 µM
[9] = second compound 0.01 µM, first compound 0.316 µM
[10] = second compound 0.01 µM, first compound 1 µM
[11] = second compound 0.01 µM, first compound 3.16 µM
[12] = second compound 0.01 µM, first compound 10 µM
[13] = second compound 0.0316 µM, first compound 0.0316 µM
[14] = second compound 0.0316 µM, first compound 0.1 µM
[15] = second compound 0.0316 µM, first compound 0.316 µM
[16] = second compound 0.0316 µM, first compound 1 µM
[17] = second compound 0.0316 µM, first compound 3.16 µM
[18] = second compound 0.0316 µM, first compound 10 µM
[19] = second compound 0.1 µM, first compound 0.0316 µM
[20] = second compound 0.1 µM, first compound 0.1 µM
[21] = second compound 0.1 µM, first compound 0.316 µM
[22] = second compound 0.1 µM, first compound 1 µM
[23] = second compound 0.1 µM, first compound 3.16 µM
[24] = second compound 0.1 µM, first compound 10 µM
[25] = second compound 0.316 µM, first compound 0.0316 µM
[26] = second compound 0.316 µM, first compound 0.1 µM
[27] = second compound 0.316 µM, first compound 0.316 µM
[28] = second compound 0.316 µM, first compound 1 µM
[29] = second compound 0.316 µM, first compound 3.16 µM
[30] = second compound 0.316 µM, first compound 10 µM
[31] = second compound 1 µM, first compound 0.0316 µM
[32] = second compound 1 µM, first compound 0.1 µM
[33] = second compound 1 µM, first compound 0.316 µM
[34] = second compound 1 µM, first compound 1 µM
[35] = second compound 1 µM, first compound 3.16 µM
[36] = second compound 1 µM, first compound 10 µM

CC1(C)CCC(CN2CCN(c3ccc(C(=O)NS(=O)(=O)c4ccc(NCC5CCOCC5)c([N+](=O)[O-])c4)c(Oc4cnc5[nH]ccc5c4)c3)CC2)=C(c2ccc(Cl)cc2)C1 + CC(Nc1ccc2c(c1)OCCn1cc(N3C(=O)OCC3C(F)F)nc1-2)C(N)=O
4.3 µM: IC50 (second compound 0.0316 µM)
4.32 µM: IC50 (second compound 0.1 µM)
4.86 µM: IC50 (second compound 0.00316 µM)
5.03 µM: IC50 (second compound 0.01 µM)
active: viability, T/C [6] 8.95% | viability, T/C [12] 9.38% | viability, T/C [18] 9.45% | viability, T/C [30] 8.04% | viability, T/C [36] 9.1%
inactive: viability, T/C [1] 94.2% | viability, T/C [2] 99.9% | viability, T/C [3] 82.1% | viability, T/C [4] 91.6% | viability, T/C [5] 74.4% | viability, T/C [7] 91.8% | viability, T/C [8] 108% | viability, T/C [9] 90.1% | viability, T/C [10] 108% | viability, T/C [11] 77.5% | viability, T/C [13] 97.6% | viability, T/C [14] 89.3% | viability, T/C [15] 71.6% | viability, T/C [16] 94.6% | viability, T/C [17] 64.6% | viability, T/C [19] 97.9% | viability, T/C [20] 95.7% | viability, T/C [21] 83.4% | viability, T/C [22] 83.8% | viability, T/C [23] 67.2% | viability, T/C [24] 10% | viability, T/C [25] 89.6% | viability, T/C [26] 74.7% | viability, T/C [27] 96% | viability, T/C [28] 76.5% | viability, T/C [29] 56.2% | viability, T/C [31] 80.6% | viability, T/C [32] 79.8% | viability, T/C [33] 79.6% | viability, T/C [34] 90% | viability, T/C [35] 53.8%
3.48 µM: IC50 (second compound 1 µM)
3.63 µM: IC50 (second compound 0.316 µM)

C[C@@H](NC(=O)c1ncnc(N)c1Cl)c1ncc(C(=O)Nc2cc(C(F)(F)F)c(Cl)cn2)s1 + CC(Nc1ccc2c(c1)OCCn1cc(N3C(=O)OCC3C(F)F)nc1-2)C(N)=O
inactive: viability, T/C [1] 91.6% | viability, T/C [2] 102% | viability, T/C [3] 93.7% | viability, T/C [4] 102% | viability, T/C [5] 104% | viability, T/C [6] 108% | viability, T/C [7] 104% | viability, T/C [8] 105% | viability, T/C [9] 105% | viability, T/C [10] 107% | viability, T/C [11] 93.3% | viability, T/C [12] 81% | viability, T/C [13] 104% | viability, T/C [14] 92.2% | viability, T/C [15] 102% | viability, T/C [16] 97.3% | viability, T/C [17] 93.3% | viability, T/C [18] 81.4% | viability, T/C [19] 98.7% | viability, T/C [20] 85.2% | viability, T/C [21] 93.2% | viability, T/C [22] 101% | viability, T/C [23] 101% | viability, T/C [24] 86.2% | viability, T/C [25] 83.3% | viability, T/C [26] 83.7% | viability, T/C [27] 94.7% | viability, T/C [28] 99.7% | viability, T/C [29] 108% | viability, T/C [30] 68.2% | viability, T/C [31] 97.3% | viability, T/C [32] 89.5% | viability, T/C [33] 89.6% | viability, T/C [34] 99.5% | viability, T/C [35] 91% | viability, T/C [36] 74.1%
> 10 µM: IC50 (second compound 0.00316 µM) | IC50 (second compound 0.01 µM) | IC50 (second compound 0.0316 µM) | IC50 (second compound 0.1 µM) | IC50 (second compound 0.316 µM) | IC50 (second compound 1 µM)

Cn1ncnc1[C@H]1c2n[nH]c(=O)c3cc(F)cc(c23)N[C@@H]1c1ccc(F)cc1 + CC(Nc1ccc2c(c1)OCCn1cc(N3C(=O)OCC3C(F)F)nc1-2)C(N)=O
0.0424 µM: IC50 (second compound 0.316 µM)
> 0.1 µM: IC50 (second compound 0.00316 µM) | IC50 (second compound 0.01 µM) | IC50 (second compound 0.0316 µM)
0.0862 µM: IC50 (second compound 0.1 µM)
inactive: viability, T/C (second compound 0.00316 µM, first compound 0.000316 µM) 93.1% | viability, T/C (second compound 0.00316 µM, first compound 0.001 µM) 87.6% | viability, T/C (second compound 0.00316 µM, first compound 0.00316 µM) 87.3% | viability, T/C (second compound 0.00316 µM, first compound 0.01 µM) 96.8% | viability, T/C [1] 72.2% | viability, T/C [2] 55.4% | viability, T/C (second compound 0.01 µM, first compound 0.000316 µM) 90% | viability, T/C (second compound 0.01 µM, first compound 0.001 µM) 99.3% | viability, T/C (second compound 0.01 µM, first compound 0.00316 µM) 81% | viability, T/C (second compound 0.01 µM, first compound 0.01 µM) 85.6% | viability, T/C [7] 76.3% | viability, T/C [8] 56.5% | viability, T/C (second compound 0.0316 µM, first compound 0.000316 µM) 107% | viability, T/C (second compound 0.0316 µM, first compound 0.001 µM) 88.9% | viability, T/C (second compound 0.0316 µM, first compound 0.00316 µM) 83% | viability, T/C (second compound 0.0316 µM, first compound 0.01 µM) 83.5% | viability, T/C [13] 74.5% | viability, T/C [14] 47.3% | viability, T/C (second compound 0.1 µM, first compound 0.000316 µM) 99.5% | viability, T/C (second compound 0.1 µM, first compound 0.001 µM) 77.4% | viability, T/C (second compound 0.1 µM, first compound 0.00316 µM) 72.4% | viability, T/C (second compound 0.1 µM, first compound 0.01 µM) 80.2% | viability, T/C [19] 75.6% | viability, T/C [20] 45.5% | viability, T/C (second compound 0.316 µM, first compound 0.000316 µM) 93.4% | viability, T/C (second compound 0.316 µM, first compound 0.001 µM) 73.6% | viability, T/C (second compound 0.316 µM, first compound 0.00316 µM) 73.9% | viability, T/C (second compound 0.316 µM, first compound 0.01 µM) 67.5% | viability, T/C [25] 52.4% | viability, T/C [26] 40.6% | viability, T/C (second compound 1 µM, first compound 0.000316 µM) 73.7% | viability, T/C (second compound 1 µM, first compound 0.001 µM) 73.4% | viability, T/C (second compound 1 µM, first compound 0.00316 µM) 68.7% | viability, T/C (second compound 1 µM, first compound 0.01 µM) 67% | viability, T/C [31] 56% | viability, T/C [32] 41.3%
0.0516 µM: IC50 (second compound 1 µM)

— PubChem BioAssay AID1963960 (Molecular Pharmacology Branch, DTP, NCI, 2024)
